Measurements taken from US8940909B2, “Indicator platform” (Biosynth AG, priority 2009, dated 2015).

Columns and labels:
[1] = test system: beta-galactosidase positive Eschericha coli (NM1); experiment: IO staining of bacterial colonies on Nutrient Agar (color, fluorescence, localization, growth); as to C: Color of colonies (strength): key: −: absent; +/−: weak; +: strong; ++: very strong; as to F: Fluorescence of colonies (strength): key: −: absent; +/−: weak; +: strong; ++: very strong; as to G: Growth of colonies: key: −: absent; +/−: weak; +: strong; ++: very strong; as to L: Localization of stain on colonies: key: −: absent; +/−: weak; +: strong; ++: very strong; assay type: cell-based, E. coli; details: 150 mg/l substrate and 100 mg/l IPTG; for C: Color of colonies (colour of stain) / C: Color of colonies (strength): 24 h on Nutrient Agar; for G: Growth of colonies / L: Localization of stain on colonies / F: Fluorescence of colonies (strength) / C: Color of colonies (strength): E. coli; for G: Growth of colonies / L: Localization of stain on colonies / F: Fluorescence of colonies (strength) / F: Fluorescence of colonies (colour): 24 h; for F: Fluorescence of colonies (strength) / F: Fluorescence of colonies (colour): 366 nm UV
Description: (§1) Nutrient Agar (5 g/l peptone, 5 g/l NaCl, 2 g/l yeast extract, 1 g/l beef extract, 13 g/l agar, pH 7.4) was autoclaved and allowed to cool to 50° C. Then indicators were added to final concentrations of 150 mg/l (from a 20 mg/ml stock solution in DMF).
(§2) Optionally IPTG was added to 100 mg/l (from a 100 mg/ml stock solution in H2O) and plates were poured. Agar plates were inoculated with cultures of beta-galactosidase positive Eschericha coli (NM1) or beta-galactosidase negative Salmonella enteritidis (RKI 05/07992) (pre-grown on nutrient broth for 8-18 hours) and incubated at 37° C. Plates were inspected at 16, 20, 24 and 48 hours and pictures were recorded at 18, 24, and 48 hours with a Digistore 2 Image documentation system (CAMAG) under white light.
(§3) A considerable number of indicators molecules (Table IVa, IVb) and a selection of labile groups (Table IVc) were tested with various microbial species producing different biomarker enzymes (external stimuli, eS). The color of stains ranges from yellow to red.
(§4) Plating media from Example 10 were examined under 366 nm UV irradiation at 16, 20, 24 and 48 hours for fluorescence by means of Digistore 2 Image documentation system (CAMAG). Loops of bacterial cells, grown for 48 hours on Nutrient Agar plates containing 150 mg/l beta-D-galactosidase indicator and 100 mg/l IPTG, were directly streaked into wells of black clear bottom microtiter plates. Fluorescence scans were recorded on a Spectramax M5 (Molecular Devices).

[2] = test system: beta-galactosidase negative Salmonella enteritidis (RKI 05/07992); assay type: cell-based; details: S. enteritidis (b-gal negative), 24 h, 150 mg/l substrate and 100 mg/l IPTG; for F: Fluorescence of colonies (strength): 366 nm UV; as to all read-outs here: key: −: absent; +/−: weak; +: strong; ++: very strong
Description: as §1, §2, §3, §4

Compound: O=Cc1ccccc1-n1cc(O[C@@H]2O[C@H](CO)[C@H](O)[C@H](O)[C@H]2O)c2ccccc21 [Indicator I13a, 1-(2-Formylphenyl)-1H-indol-3-yl-beta-D-galactopyranoside]
- C: Color of colonies (colour of stain) [1]: cream-orange
- G: Growth of colonies [1]: +
- L: Localization of stain on colonies [1]: +
- F: Fluorescence of colonies (strength) [1]: −
- C: Color of colonies (strength) [1]: +/−
- C: Color of colonies (strength) [2]: −
- F: Fluorescence of colonies (strength) [2]: −

Compound: CC(=O)c1ccccc1-n1cc(O[C@@H]2O[C@H](CO)[C@H](O)[C@H](O)[C@H]2O)c2ccccc21 [Indicator I14a, 1-(2-Acetylphenyl)-1H-indol-3-yl-beta-D-galactopyranoside]
- C: Color of colonies (colour of stain) [1]: light yellow
- G: Growth of colonies [1]: +
- L: Localization of stain on colonies [1]: +
- F: Fluorescence of colonies (strength) [1]: −
- C: Color of colonies (strength) [1]: +
- C: Color of colonies (strength) [2]: −
- F: Fluorescence of colonies (strength) [2]: −

Compound: CC(=O)c1ccccc1-n1cc(O[C@@H]2O[C@H](CO)[C@H](O)[C@H](O)[C@H]2O)c2c(Cl)c(Br)ccc21 [Indicator I17a, 1-(2-Acetylphenyl)-5-bromo-4-chloro-1H-indol-3-yl-beta-D-galactopyranoside]
- C: Color of colonies (colour of stain) [1]: yellow-orange
- G: Growth of colonies [1]: +
- L: Localization of stain on colonies [1]: +
- F: Fluorescence of colonies (strength) [1]: −
- C: Color of colonies (strength) [1]: +
- C: Color of colonies (strength) [2]: −
- F: Fluorescence of colonies (strength) [2]: −

Compound: COc1ccc(C(C)=O)c(-n2cc(O[C@@H]3O[C@H](CO)[C@H](O)[C@H](O)[C@H]3O)c3ccc(Cl)cc32)c1 [Indicator I18a, 1-(2-Acetyl-5-methoxyphenyl)-6-chloro-1H-indol-3-yl-beta-D-galactopyranoside]
- F: Fluorescence of colonies (colour) [1]: green
- C: Color of colonies (colour of stain) [1]: light yellow
- G: Growth of colonies [1]: +
- L: Localization of stain on colonies [1]: +/−
- F: Fluorescence of colonies (strength) [1]: +/−
- C: Color of colonies (strength) [1]: +
- C: Color of colonies (strength) [2]: −
- F: Fluorescence of colonies (strength) [2]: −

Compound: O=C(c1ccccc1)c1ccccc1-n1cc(O[C@@H]2O[C@H](CO)[C@H](O)[C@H](O)[C@H]2O)c2ccccc21 [Indicator I19a, 1-(2-Benzoylphenyl)-1H-indol-3-yl-beta-D-galactopyranoside]
- F: Fluorescence of colonies (colour) [1]: yellow
- C: Color of colonies (colour of stain) [1]: yellow-orange
- G: Growth of colonies [1]: +
- L: Localization of stain on colonies [1]: +
- F: Fluorescence of colonies (strength) [1]: +
- C: Color of colonies (strength) [1]: +
- C: Color of colonies (strength) [2]: −
- F: Fluorescence of colonies (strength) [2]: −

Compound: O=C(c1ccccc1)c1ccccc1-n1cc(O[C@@H]2O[C@H](CO)[C@H](O)[C@H](O)[C@H]2O)c2c(Cl)cccc21 [Indicator I20a, 1-(2-Benzoylphenyl)-4-chloro-1H-indol-3-yl-beta-D-galactopyranoside]
- F: Fluorescence of colonies (colour) [1]: orange
- C: Color of colonies (colour of stain) [1]: orange
- G: Growth of colonies [1]: +
- L: Localization of stain on colonies [1]: cryst.
- F: Fluorescence of colonies (strength) [1]: +/−
- C: Color of colonies (strength) [1]: +/−
- C: Color of colonies (strength) [2]: −
- F: Fluorescence of colonies (strength) [2]: −

Compound: COc1ccc(C(=O)c2ccccc2)c(-n2cc(O[C@@H]3O[C@H](CO)[C@H](O)[C@H](O)[C@H]3O)c3ccc(Cl)cc32)c1 [Indicator I24a, 1-(2-Benzoyl-5-methoxyphenyl)-6-chloro-1H-indol-3-yl-beta-D-galactopyranoside]
- F: Fluorescence of colonies (colour) [1]: yellow-green
- C: Color of colonies (colour of stain) [1]: dark yellow
- G: Growth of colonies [1]: +
- L: Localization of stain on colonies [1]: +/−
- F: Fluorescence of colonies (strength) [1]: +
- C: Color of colonies (strength) [1]: +
- C: Color of colonies (strength) [2]: −
- F: Fluorescence of colonies (strength) [2]: −

Compound: COc1ccc(C(=O)c2ccccc2-n2cc(O[C@@H]3O[C@H](CO)[C@H](O)[C@H](O)[C@H]3O)c3c(Cl)cccc32)c(OC)c1 [Indicator I26a, 4-Chloro-1-[2-(2,4-dimethoxybenzoyl)phenyl]-1H-indol-3-yl-beta-D-galactopyranoside]
- F: Fluorescence of colonies (colour) [1]: orange
- C: Color of colonies (colour of stain) [1]: yellow-orange
- G: Growth of colonies [1]: +
- L: Localization of stain on colonies [1]: +
- F: Fluorescence of colonies (strength) [1]: +/−
- C: Color of colonies (strength) [1]: +
- C: Color of colonies (strength) [2]: −
- F: Fluorescence of colonies (strength) [2]: −

Compound: O=C(O)c1ccc(C(=O)c2ccccc2-n2cc(O[C@@H]3O[C@H](CO)[C@H](O)[C@H](O)[C@H]3O)c3ccc(Cl)cc32)o1 [Indicator I29a, 1-[2-(5-Carboxylfuranoyl)phenyl]-6-chloro-1H-indol-3-yl-beta-D-galactopyranoside]
- C: Color of colonies (colour of stain) [1]: red
- G: Growth of colonies [1]: +
- L: Localization of stain on colonies [1]: −
- F: Fluorescence of colonies (strength) [1]: −
- C: Color of colonies (strength) [1]: +
- C: Color of colonies (strength) [2]: −
- F: Fluorescence of colonies (strength) [2]: −

Compound: O=C(c1ccco1)c1ccccc1-n1cc(O[C@@H]2O[C@H](CO)[C@H](O)[C@H](O)[C@H]2O)c2ccc(Cl)cc21 [Indicator I30a, 6-Chloro-1-(2-furanoylphenyl)-1H-indol-3-yl-beta-D-galactopyranoside]
- F: Fluorescence of colonies (colour) [1]: orange-red
- C: Color of colonies (colour of stain) [1]: dark orange
- G: Growth of colonies [1]: +
- L: Localization of stain on colonies [1]: +/−
- F: Fluorescence of colonies (strength) [1]: +/−
- C: Color of colonies (strength) [1]: ++
- C: Color of colonies (strength) [2]: −
- F: Fluorescence of colonies (strength) [2]: −
